Data reported in patent US12378224B2 (Dong-A Socio Holdings Co., Ltd., priority 2016, dated 2025).

target: human c-MER catalytic domain (Homo sapiens (Human), UniProt Q12866); test: TR-FRET Kinase Activity Biochemical Assay (LanthaScreen); conditions: 10 uM ATP, 1 hour, kinase not given
Summary of the method: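 Recombinant human c-MER catalytic domain phosphorylated fluorescein-labeled poly-GT substrate. The reaction was stopped with 10 mM EDTA, then 2 nM Tb-labeled anti-phosphotyrosine antibody was added for 30 min. Kinase activity was taken from the 495/520 nm TR-FRET emission ratio after 340 nm excitation.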

Chain of human c-MER catalytic domain (Q12866 587-858): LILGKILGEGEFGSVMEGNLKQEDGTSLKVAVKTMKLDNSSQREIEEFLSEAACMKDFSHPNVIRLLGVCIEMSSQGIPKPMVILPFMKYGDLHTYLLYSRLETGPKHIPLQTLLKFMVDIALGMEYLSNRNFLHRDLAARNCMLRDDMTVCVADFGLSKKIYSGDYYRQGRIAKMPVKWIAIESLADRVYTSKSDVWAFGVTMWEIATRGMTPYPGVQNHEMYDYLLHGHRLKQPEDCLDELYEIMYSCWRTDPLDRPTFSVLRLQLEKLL

Row | IC50 [nM] | SMILES
1 | 100 to 1000 | Cc1noc(C)c1-c1ccc(C(=O)N2CC[C@@H](NC(=O)c3cc(-c4cnn(C)c4)cnc3N)C2)cc1 [Example 539, (R)-2-amino-N-(1-(4-(3,5-dimethylisoxazol-4-yl)benzoyl)pyrrolidin-3-yl)-5-(1-methyl-1H-pyrazol-4-yl)nicotinamide]
2 | 10 to 100 | Cn1cc(-c2cnc(N)c(C(=O)N[C@@H]3CCN(C(=O)c4ccc(-c5ccc(O[C@H]6CCNC6)cc5)cc4)C3)c2)cn1 [Example 541, 2-amino-5-(1-methyl-1H-pyrazol-4-yl)-N—((R)-1-(4′-(((S)-pyrrolidin-3-yl)oxy)-[1,1′-biphenyl]-4-carbonyl)pyrrolidin-3-yl)nicotinamide]
3 | 100 to 1000 | CC(O)c1ccc(-c2ccc(C(=O)N3CC[C@@H](NC(=O)c4cc(-c5cnn(C)c5)cnc4N)C3)cc2)s1 (stereo partly drawn) [Example 542, 2-amino-N-((3R)-1-(4-(5-(1-hydroxyethyl)thiophen-2-yl)benzoyl)pyrrolidin-3-yl)-5-(1-methyl-1H-pyrazol-4-yl)nicotinamide]
4 | 100 to 1000 | CN1CCC(NCc2ccc(-c3ccc(C(=O)N4CC[C@@H](NC(=O)c5cc(-c6cnn(C)c6)cnc5N)C4)cc3)cc2)CC1 [Example 549, (R)-2-amino-5-(1-methyl-1H-pyrazol-4-yl)-N-(1-(4′-(((1-methylpiperidin-4-yl)amino)methyl)-[1,1′-biphenyl]-4-carbonyl)pyrrolidin-3-yl)nicotinamide]
5 | 10 to 100 | CN(C)CCCOc1ccc(-c2ccc(C(=O)N3CC[C@@H](NC(=O)c4cc(-c5cnn(C)c5)cnc4N)C3)cc2)cc1 [Example 551, (R)-2-amino-N-(1-(4′-(3-(dimethylamino)propoxy)-[1,1′-biphenyl]-4-carbonyl)pyrrolidin-3-yl)-5-(1-methyl-1H-pyrazol-4-yl)nicotinamide]
6 | 100 to 1000 | COc1ccc(-c2cnc(N)c(C(=O)N[C@@H]3CCN(C(=O)c4ccc(-c5ccccc5)cc4)C3)c2)cc1 [Example 555, (R)—N-(1-([1,1′-biphenyl]-4-carbonyl)pyrrolidin-3-yl)-2-amino-5-(4-methoxyphenyl)nicotinamide]
7 | 10 to 100 | Nc1ncc(-c2ccc(N3CCOCC3)cc2)cc1C(=O)N[C@@H]1CCN(C(=O)c2ccc(-c3ccccc3)cc2)C1 [Example 557, (R)—N-(1-([1,1′-biphenyl]-4-carbonyl)pyrrolidin-3-yl)-2-amino-5-(4-morpholinophenyl)nicotinamide]
8 | 10 to 100 | CC(C)(C)OC(=O)N1CCC(n2cc(-c3cnc(N)c(C(=O)N[C@@H]4CCN(C(=O)c5ccc(-c6ccccc6)cc5)C4)c3)cn2)CC1 [Example 561, tert-butyl (R)-4-(4-(5-((1-([1,1′-biphenyl]-4-carbonyl)pyrrolidin-3-yl)carbamoyl)-6-aminopyridin-3-yl)-1H-pyrazol-1-yl)piperidine-1-carboxylate]
9 | 10 to 100 | Nc1ncc(-c2ccc(CN3CCOCC3)cc2)cc1C(=O)N[C@@H]1CCN(C(=O)c2ccc(-c3ccccc3)cc2)C1 [Example 569, (R)—N-(1-([1,1′-biphenyl]-4-carbonyl)pyrrolidin-3-yl)-2-amino-5-(4-(morpholinomethyl)phenyl)nicotinamide]
10 | 10 to 100 | Nc1ncc(-c2ccc(N3CCOCC3)cc2)cc1C(=O)N[C@@H]1CCN(C(=O)c2ccc(-c3ccccc3Cl)cc2)C1 [Example 571, (R)-2-amino-N-(1-(2′-chloro-[1,1′-biphenyl]-4-carbonyl)pyrrolidin-3-yl)-5-(4-morpholinophenyl)nicotinamide]
11 | 10 to 100 | Nc1ncccc1C(=O)N[C@@H]1CCN(C(=O)c2ccc(-c3ccc(F)cc3Cl)cc2)C1 [Example 579, (R)-2-amino-N-(1-(2′-chloro-4′-fluoro-[1,1′-biphenyl]-4-carbonyl)pyrrolidin-3-yl)nicotinamide]
12 | 10 to 100 | Nc1ncc(-c2ccc(C(=O)NCCCN3CCCC3=O)cc2)cc1C(=O)N[C@@H]1CCN(C(=O)c2ccc(-c3ccccc3Cl)cc2)C1 [Example 595, (R)-2-amino-N-(1-(2′-chloro-[1,1′-biphenyl]-4-carbonyl)pyrrolidin-3-yl)-5-(4-((3-(2-oxopyrrolidin-1-yl)propyl)carbamoyl)phenyl)nicotinamide]
13 | 10 to 100 | Cc1ccc(-c2ccc(C(=O)N3CC[C@@H](Nc4n[nH]c5ncc(-c6cnn(C)c6)cc45)C3)cc2)s1 [Example 615, (R)-(3-((5-(1-methyl-1H-pyrazol-4-yl)-1H-pyrazolo[3,4-b]pyridin-3-yl)amino)pyrrolidin-1-yl)(4-(5-methylthiophen-2-yl)phenyl)methanone]
14 | 100 to 1000 | Cn1cc(-c2cnc3[nH]nc(N[C@@H]4CCN(C(=O)c5ccc(-c6ccccc6)cc5)C4)c3c2)cn1 [Example 616, (R)-[1,1′-biphenyl]-4-yl(3-((5-(1-methyl-1H-pyrazol-4-yl)-1H-pyrazolo[3,4-b]pyridin-3-yl)amino)pyrrolidin-1-yl)methanone]
15 | 10 to 100 | Cn1cc(-c2cnc3[nH]nc(N[C@@H]4CCN(C(=O)c5ccc(-c6ccccc6Cl)cc5)C4)c3c2)cn1 [Example 617, (R)-(2′-chloro-[1,1′-biphenyl]-4-yl)(3-((5-(1-methyl-1H-pyrazol-4-yl)-1H-pyrazolo[3,4-b]pyridin-3-yl)amino)pyrrolidin-1-yl)methanone]
16 | 100 to 1000 | Cn1cc(-c2cnc3[nH]nc(N[C@@H]4CCN(C(=O)c5ccc(-c6ccc(Oc7ccc(N)cc7)cc6)cc5)C4)c3c2)cn1 [Example 620, (R)-(4′-(4-aminophenoxy)-[1,1′-biphenyl]-4-yl)(3-((5-(1-methyl-1H-pyrazol-4-yl)-1H-pyrazolo[3,4-b]pyridin-3-yl)amino)pyrrolidin-1-yl)methanone]
17 | 100 to 1000 | CN1CCN(Cc2ccc(-c3cc(CN4CC[C@@H](NC(=O)c5cc(-c6cnn(C)c6)cnc5N)C4)ccc3F)cc2)CC1 [Example 633, (R)-2-amino-N-(1-((6-fluoro-4′-((4-methylpiperazin-1-yl)methyl)-[1,1′-biphenyl]-3-yl)methyl)pyrrolidin-3-yl)-5-(1-methyl-1H-pyrazol-4-yl)nicotinamide]
18 | 100 to 1000 | Cn1cc(-c2cnc(N)c(C(=O)N[C@@H]3CCN(C(=O)c4ccc(-c5ccc(S(=O)(=O)N6CCC6)cc5)cc4)C3)c2)cn1 [Example 660, (R)-2-amino-N-(1-(4′-(azetidin-1-ylsulfonyl)-[1,1′-biphenyl]-4-carbonyl)pyrrolidin-3-yl)-5-(1-methyl-1H-pyrazol-4-yl)nicotinamide]
19 | 100 to 1000 | CSc1ccc(-c2ccc(C(=O)N3CC[C@@H](NC(=O)c4cc(-c5cnn(C)c5)cnc4N)C3)cc2)cc1 [Example 665, (R)-2-amino-5-(1-methyl-1H-pyrazol-4-yl)-N-(1-(4′-(methylthio)-[1,1′-biphenyl]-4-carbonyl)pyrrolidin-3-yl)nicotinamide]

Row | SMILES | IC50 [nM]
20 | CC(C)(c1ccc(-c2cnc(N)c(C(=O)N[C@@H]3CCN(C(=O)c4ccc(-c5ccccc5)cc4)C3)c2)cc1)N1CCNCC1 [Example 564, (R)—N-(1-([1,1′-biphenyl]-4-carbonyl)pyrrolidin-3-yl)-2-amino-5-(4-(2-(piperazin-1-yl)propan-2-yl)phenyl)nicotinamide] | < 10
21 | CN1CCN(Cc2cccc(N3CC[C@H](OC(=O)N4CC[C@@H](NC(=O)c5cc(-c6cnn(C)c6)cnc5N)C4)C3)c2)CC1 [Example 626, (S)-1-(3-((4-methylpiperazin-1-yl)methyl)phenyl)pyrrolidin-3-yl (R)-3-(2-amino-5-(1-methyl-1H-pyrazol-4-yl)nicotinamido)pyrrolidine-1-carboxylate] | > 1000
